Laboratory results: PubChem BioAssay AID2060613 (Molecular Pharmacology Branch, DTP, NCI, 2025)

Tested on: 233499-124-R-J3-PDC complex spheroid viability
Experiment: Anticancer human tumor 233499-124-R-J3-PDC patient-derived colon adenocarcinoma cell line growth inhibition [CLK]
Conditions: for IC50: curve of first compound; for viability, T/C: stronger effect = lower value
In short: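 Patient-derived tumor cells grown as complex spheroids with HUVEC endothelial cells and mesenchymal stem cells, treated with drug combinations. Concentrations descend in half-log steps from near clinical Cmax, or from 10 microM if Cmax unknown.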

[1] = second compound 0.0316 µM, first compound 0.0316 µM
[2] = second compound 0.0316 µM, first compound 0.1 µM
[3] = second compound 0.0316 µM, first compound 0.316 µM
[4] = second compound 0.0316 µM, first compound 1 µM
[5] = second compound 0.0316 µM, first compound 3.16 µM
[6] = second compound 0.0316 µM, first compound 10 µM
[7] = second compound 0.1 µM, first compound 0.0316 µM
[8] = second compound 0.1 µM, first compound 0.1 µM
[9] = second compound 0.1 µM, first compound 0.316 µM
[10] = second compound 0.1 µM, first compound 1 µM
[11] = second compound 0.1 µM, first compound 3.16 µM
[12] = second compound 0.1 µM, first compound 10 µM
[13] = second compound 0.316 µM, first compound 0.0316 µM
[14] = second compound 0.316 µM, first compound 0.1 µM
[15] = second compound 0.316 µM, first compound 0.316 µM
[16] = second compound 0.316 µM, first compound 1 µM
[17] = second compound 0.316 µM, first compound 3.16 µM
[18] = second compound 0.316 µM, first compound 10 µM
[19] = second compound 1 µM, first compound 0.0316 µM
[20] = second compound 1 µM, first compound 0.1 µM
[21] = second compound 1 µM, first compound 0.316 µM
[22] = second compound 1 µM, first compound 1 µM
[23] = second compound 1 µM, first compound 3.16 µM
[24] = second compound 1 µM, first compound 10 µM
[25] = second compound 3.16 µM, first compound 0.0316 µM
[26] = second compound 3.16 µM, first compound 0.1 µM
[27] = second compound 3.16 µM, first compound 0.316 µM
[28] = second compound 3.16 µM, first compound 1 µM
[29] = second compound 3.16 µM, first compound 3.16 µM
[30] = second compound 3.16 µM, first compound 10 µM
[31] = second compound 10 µM, first compound 0.0316 µM
[32] = second compound 10 µM, first compound 0.1 µM
[33] = second compound 10 µM, first compound 0.316 µM
[34] = second compound 10 µM, first compound 1 µM
[35] = second compound 10 µM, first compound 3.16 µM
[36] = second compound 10 µM, first compound 10 µM
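Note: spheroids exposed to the drug combinations for seven days.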
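Throughout, for viability, T/C: percent viability relative to DMSO vehicle control wells taken as 100%.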

Structure (SMILES): CC(=O)O[C@H]1C(=O)[C@@]2(C)[C@H]([C@H](OC(=O)c3ccccc3)[C@]3(O)C[C@H](OC(=O)[C@H](O)[C@@H](NC(=O)c4ccccc4)c4ccccc4)C(C)=C1C3(C)C)[C@]1(OC(C)=O)CO[C@@H]1C[C@@H]2O + CN1CCN(c2cc(C(=O)Nc3cc4cc(-c5cnn(C)c5)ccc4cn3)ccn2)CC1
- IC50 (second compound 0.0316 µM): 69.9 nM
- IC50 (second compound 0.1 µM): 57.7 nM
- IC50 (second compound 0.316 µM): 39.4 nM
- IC50 (second compound 1 µM): < 31.6 nM
- IC50 (second compound 3.16 µM): < 31.6 nM
- IC50 (second compound 10 µM): < 31.6 nM
- viability, T/C [1]: 79.9%
- viability, T/C [2]: 36.4%
- viability, T/C [3]: 15.7%
- viability, T/C [4]: 14.2%
- viability, T/C [5]: 14.4%
- viability, T/C [6]: 21.8%
- viability, T/C [7]: 77.1%
- viability, T/C [8]: 25.5%
- viability, T/C [9]: 11.9%
- viability, T/C [10]: 10.2%
- viability, T/C [11]: 12%
- viability, T/C [12]: 15.1%
- viability, T/C [13]: 57.5%
- viability, T/C [14]: 18.2%
- viability, T/C [15]: 15.6%
- viability, T/C [16]: 11.5%
- viability, T/C [17]: 13.8%
- viability, T/C [18]: 11.9%
- viability, T/C [19]: 0.76%
- viability, T/C [20]: 1.44%
- viability, T/C [21]: 1.17%
- viability, T/C [22]: 1.02%
- viability, T/C [23]: 0.56%
- viability, T/C [24]: 0.53%
- viability, T/C [25]: 0.61%
- viability, T/C [26]: 0.63%
- viability, T/C [27]: 0.56%
- viability, T/C [28]: 0.52%
- viability, T/C [29]: 0.59%
- viability, T/C [30]: 0.74%
- viability, T/C [31]: 0.46%
- viability, T/C [32]: 0.45%
- viability, T/C [33]: 0.39%
- viability, T/C [34]: 0.43%
- viability, T/C [35]: 0.43%
- viability, T/C [36]: 0.39%

Structure (SMILES): CCc1c2c(nc3ccc(O)cc13)-c1cc3c(c(=O)n1C2)COC(=O)[C@]3(O)CC + CN1CCN(c2cc(C(=O)Nc3cc4cc(-c5cnn(C)c5)ccc4cn3)ccn2)CC1
- IC50 (second compound 0.0316 µM): 601 nM
- IC50 (second compound 0.1 µM): 463 nM
- IC50 (second compound 0.316 µM): 81.4 nM
- IC50 (second compound 1 µM): < 3.16 nM
- IC50 (second compound 3.16 µM): < 3.16 nM
- IC50 (second compound 10 µM): < 3.16 nM
- viability, T/C (second compound 0.0316 µM, first compound 0.00316 µM): 95.4%
- viability, T/C (second compound 0.0316 µM, first compound 0.01 µM): 65.8%
- viability, T/C [1]: 81.8%
- viability, T/C [2]: 87.3%
- viability, T/C [3]: 60.5%
- viability, T/C [4]: 41.7%
- viability, T/C (second compound 0.1 µM, first compound 0.00316 µM): 85.6%
- viability, T/C (second compound 0.1 µM, first compound 0.01 µM): 82.5%
- viability, T/C [7]: 88%
- viability, T/C [8]: 88.1%
- viability, T/C [9]: 60.7%
- viability, T/C [10]: 28.4%
- viability, T/C (second compound 0.316 µM, first compound 0.00316 µM): 88%
- viability, T/C (second compound 0.316 µM, first compound 0.01 µM): 80.9%
- viability, T/C [13]: 58.5%
- viability, T/C [14]: 58.5%
- viability, T/C [15]: 14.1%
- viability, T/C [16]: 9.37%
- viability, T/C (second compound 1 µM, first compound 0.00316 µM): 1.6%
- viability, T/C (second compound 1 µM, first compound 0.01 µM): 0.5%
- viability, T/C [19]: 0.39%
- viability, T/C [20]: 0.38%
- viability, T/C [21]: 0.35%
- viability, T/C [22]: 0.47%
- viability, T/C (second compound 3.16 µM, first compound 0.00316 µM): 0.46%
- viability, T/C (second compound 3.16 µM, first compound 0.01 µM): 0.5%
- viability, T/C [25]: 0.59%
- viability, T/C [26]: 0.52%
- viability, T/C [27]: 0.63%
- viability, T/C [28]: 0.55%
- viability, T/C (second compound 10 µM, first compound 0.00316 µM): 0.36%
- viability, T/C (second compound 10 µM, first compound 0.01 µM): 0.33%
- viability, T/C [31]: 0.32%
- viability, T/C [32]: 0.37%
- viability, T/C [33]: 0.42%
- viability, T/C [34]: 0.3%

Structure (SMILES): COc1cccc2c1C(=O)c1c(O)c3c(c(O)c1C2=O)CC(O)(C(=O)CO)CC3OC1CC(N)C(O)C(C)O1 (stereo unspecified) + CN1CCN(c2cc(C(=O)Nc3cc4cc(-c5cnn(C)c5)ccc4cn3)ccn2)CC1
- IC50 (second compound 0.0316 µM): 2550 nM
- IC50 (second compound 0.1 µM): 1780 nM
- IC50 (second compound 0.316 µM): 1940 nM
- IC50 (second compound 1 µM): < 31.6 nM
- IC50 (second compound 3.16 µM): < 31.6 nM
- IC50 (second compound 10 µM): < 31.6 nM
- viability, T/C [1]: 80.4%
- viability, T/C [2]: 110%
- viability, T/C [3]: 106%
- viability, T/C [4]: 80.9%
- viability, T/C [5]: 43.2%
- viability, T/C [6]: 10.8%
- viability, T/C [7]: 98%
- viability, T/C [8]: 110%
- viability, T/C [9]: 100%
- viability, T/C [10]: 68.5%
- viability, T/C [11]: 30.7%
- viability, T/C [12]: 5.13%
- viability, T/C [13]: 84.7%
- viability, T/C [14]: 97.6%
- viability, T/C [15]: 66.5%
- viability, T/C [16]: 61.9%
- viability, T/C [17]: 44.4%
- viability, T/C [18]: 2.79%
- viability, T/C [19]: 0.46%
- viability, T/C [20]: 0.59%
- viability, T/C [21]: 10.8%
- viability, T/C [22]: 0.33%
- viability, T/C [23]: 5.03%
- viability, T/C [24]: 0.81%
- viability, T/C [25]: 0.55%
- viability, T/C [26]: 0.57%
- viability, T/C [27]: 0.48%
- viability, T/C [28]: 0.43%
- viability, T/C [29]: 0.53%
- viability, T/C [30]: 0.67%
- viability, T/C [31]: 0.35%
- viability, T/C [32]: 0.39%
- viability, T/C [33]: 0.38%
- viability, T/C [34]: 0.34%
- viability, T/C [35]: 0.3%
- viability, T/C [36]: 0.24%
